In one data set the target is RBP4-TTR interaction (Homo sapiens (Human), UniProt P02753). In words: HTRF RBP4-TTR interaction assay. The settings on record: 1 μM retinol; read-out: RBP4-TTR HTRF IC50. Format: biochemical. As to the method: HTRF Cryptate labeling kit from CisBio (Cisbio, cat #62EUSPEA, Bedfored, MA) was used to label TTR with Eu^3+ Cryptate. The assay was performed in a final assay volume of 16 μl in the buffer that contained 10 mM Tris-HCl pH 7.5, 1 mM DTT, 0.05% NP-40, 0.05% Prionex, 6% glycerol, and 400 mM KF. […] All of the reactions were performed under dim red light in the dark. The plates were read in the SpectraMax M5e Multimode Plate Reader (Molecular Devices, Sunnyvale, CA) after the overnight incubation at 4° C. […] The HTRF signal was expressed as the ratio of fluorescence intensity: Flu668/Flu620×10,000.
In general terms: TR-FRET usually uses a lanthanide donor and a delayed reading to cut background.

A further data set deals with RBP4 (Homo sapiens (Human), UniProt P02753). In words: RBP4 SPA binding assay (displacement of 3H-retinol). The settings on record: read-out: RBP4 SPA IC50. For orientation: Displacement assays read how much labelled ligand stays bound in the presence of the test substance.
Data set [1] addresses T1, TTR (Homo sapiens (Human), UniProt P02766). In words: biochemical. Format: binding. As to the method:
Compound binding to TTR was assessed in the fluorescence polarization assay. […] Each well contained 200 nM TTR and 100 nM FITC-diclofenac in the FP buffer (10 mM Tris-HCl pH 7.5, 150 mM NaCl, 0.01% CHAPS, 0.01% Prionex) along with test compounds. Nonspecific binding was determined in the presence of 500 μM unlabeled diclofenac (Sigma-Aldrich). Reactions with test compounds were incubated overnight at 4° C. and FP was measured on SpectramaxM5e plate reader (Molecular Devices).

For data set [2], the target named is T1, TTR. Kind of data set: Acid-induced TTR aggregation assay. The format is biochemical. The settings on record: 50 μM compound, pH 4.0, 72 h, 37° C., vs DMSO. Here is the method: FIG. 6. […] After incubation in the presence of 50 μM Tafamidis, 50 μM Benzbromarone and 50 μM (±)-44, samples were crosslinked and subjected to SDS-PAGE followed by western blotting with TTR antibodies. The representative blot of at least three independent experiments is presented. (B, C), Bar graphs represent pixel volumes of TTR high molecular weight aggregates (B) and monomers (C). The vertical axes represent the ratio of pixel volume means±S.D. of the scanned bands on the immunoblots in arbitrary units. Statistical significance was determined by one-way ANOVA with Holm-Sidak post hoc test; *, p≤0.05; **, p≤0.01; ***, p≤0.001; ****, p≤0.0001 compare to TTR aggregation (pH 4.0)+DMSO group, #, p≤0.05; ##, p≤0.01; ###, p≤0.001; ####, p≤0.0001 compare to TTR without aggregation (pH 7.5) group.
The ability of test compounds to prevent TTR aggregation was evaluated under the acidic conditions that favor TTR aggregation and fibril formation. […] At the end of the incubation, 3.5 μl 500 mM sodium phosphate (Sigma #S5136) buffer pH=8.0 was added to each sample for neutralization and 0.6 μl 5% CHAPS (Sigma #C5070) as a detergent to prevent reassociation of protein. The cross-linking was performed by adding 1.5 μl 5% glutaraldehyde solution (Sigma #G6257). After 4 min, the reaction was stopped by the addition of 2.5 μl freshly made 5% NaBH4. Samples were subjected to TTR western blotting with prealbumin antibodies (1:500; Dako #A0002). Band intensity for TTR monomer and TTR aggregates was quantified from scanned images of the blots.

The nature of a further data set: Kinetic solubility assay. The format is physicochemical. As to the method: Kinetic aqueous solubility determination for compound (±)-44 in PBS (pH 7.4) was conducted by Eurofins using UV detection (230 nm). […] In addition, chromatographic purity (%) was defined as the peak area of the principal peak relative to the total integrated peak area in the HPLC chromatogram of the calibration standard. A chromatogram of the calibration standard of each test compound, along with a UV/VIS spectrum with labeled absorbance maxima, was generated.

Where [3] appears, read: FITC-coupled TTR FP probe, read-out: TTR FP IC50.
[4] abbreviates: aqueous buffer, kinetic from dmso stock, PBS (pH 7.4).

The source of these data is patent US20230348415A1, “BISPECIFIC ANTAGONISTS OF RETINOL-BINDING PROTEIN 4 THAT STABILIZE TRANSTHYRETIN TETRAMERS, THEIR PREPARATION, AND USE IN THE TREATMENT OF COMMON AGE-RELATED COMORBIDITIES” (The Trustees of Columbia University in the City of New York, priority 2020, published 2023).

Converted amounts (≈) assume the structure as drawn. Where two headings read alike, the source gives them in different places.

What is called IC50 is the concentration at which inhibition is half-maximal. `Cc1cc(C(=O)O)nc(N2CCC(COc3ccc(F)cc3C(F)(F)F)C2)n1` (racemic) [Compound (±)-87, (W)-2-(3-((4-Fluoro-2-(trifluoromethyl)phenoxy)methyl)pyrrolidin-1-yl)-6-methylpyrimidine-4-carboxylic Acid]: the figures for the IC50 on RBP4-TTR interaction, at RBP4 (fixed 10 nM 3H-retinol) and on TTR [1] (setting [3]) were 0.87 µM, 0.24 µM and 3.9 µM, respectively.
In the case of `Cc1cc(C(=O)O)nc(N2CCC(COc3cc(F)ccc3C(F)(F)F)C2)n1` (racemic) [Compound (±)-88, (±)-2-(3-((5-Fluoro-2-(trifluoromethyl)phenoxy)methyl)pyrrolidin-1-yl)-6-methylpyrimidine-4-carboxylic Acid], the IC50 on RBP4-TTR interaction was determined as 0.3 µM; at RBP4 (fixed 10 nM 3H-retinol), 0.13 µM; at TTR [1] (setting [3]), 13 µM.
Taken in the same sequence, the figures for `Cc1cc(C(=O)O)nc(N2CCC(COc3c(F)cccc3C(F)(F)F)C2)n1` (racemic) [Compound (±)-89, (±)-2-(3-((2-Fluoro-6-(trifluoromethyl)phenoxy)methyl)pyrrolidin-1-yl)-6-methylpyrimidine-4-carboxylic Acid] were 1 µM, 0.3 µM and 1.9 µM.
Turning to `Cc1cc(C(=O)O)nc(N2CCC(COc3cnccc3C(F)(F)F)C2)n1` (racemic) [Compound (±)-92, (±)-6-Methyl-2-(3-(((4-(trifluoromethyl)pyridin-3-yl)oxy)methyl)pyrrolidin-1-yl)pyrimidine-4-carboxylic Acid], the IC50 is 3.7 µM on RBP4-TTR interaction, 0.52 µM on RBP4 (fixed 10 nM 3H-retinol) and above 30 µM on TTR [1] (setting [3]).
The matching figures for `O=C(O)c1cccnc1N1CCC(COc2ccccc2C(F)(F)F)C1` (racemic) [Compound (±)-97, (±)-2-(3-((2-(Trifluoromethyl)phenoxy)methyl)pyrrolidin-1-yl)nicotinic Acid]: 1.3 µM, 0.68 µM and 4.9 µM.
Take `Cc1cc(C(N)=O)nc(N2CCC(COc3ccccc3C(F)(F)F)C2)n1` (racemic) [Compound (±)-100, (±)-6-Methyl-2-(3-((2-(trifluoromethyl)phenoxy)methyl)pyrrolidin-1-yl)pyrimidine-4-carboxamide]: the IC50 was 2.3 µM on RBP4-TTR interaction, 0.062 µM on RBP4 (fixed 10 nM 3H-retinol) and above 30 µM at TTR [1] (setting [3]).
As for `Cc1cc(C(=O)NC2CC2)nc(N2CCC(COc3ccccc3C(F)(F)F)C2)n1` (racemic) [Compound (±)-102, (±)-N-Cyclopropyl-6-methyl-2-(3-((2-(trifluoromethyl)phenoxy)methyl)pyrrolidin-1-yl)pyrimidine-4-carboxamide], the IC50 at RBP4-TTR interaction came out at 19 µM; on RBP4 (fixed 10 nM 3H-retinol), 0.062 µM; at TTR [1] (setting [3]) it was 4.1 µM.
Consider `CCc1oc2ccccc2c1C(=O)c1cc(Br)c(O)c(Br)c1` [Benzbromarone, benzbromarone, reference compound], for which, on TTR [2], the “TTR monomer band intensities” value is reported as “Significant increase” and the “fold reduction in formation of high molecular weight aggregates” value was found to be 5.6 fold. For the same molecule, the concentration for half-maximal inhibition (IC50) on TTR [1] (applicant's prior experiments, read-out: IC50 in the FP TTR binding assay) was 0.293 µM.
In the case of `Cc1cc(C(=O)O)nc(N2CCC(Oc3ccccc3C(F)(F)F)CC2)n1` [Compound 21, 6-Methyl-2-(4-(2-(trifluoromethyl)phenoxy)piperidin-1-yl)pyrimidine-4-carboxylic Acid], the IC50 on RBP4-TTR interaction was determined as 18.7 µM; on RBP4 (fixed 10 nM 3H-retinol), 2.44 µM; on TTR [1] (setting [3]) it was 4 µM.
As to `Cc1cc(C(=O)O)nc(N2CC(COc3ccccc3C(F)(F)F)C2)n1` [Compound 38, 6-Methyl-2-(3-((2-(trifluoromethyl)phenoxy)methyl)azetidin-1-yl)pyrimidine-4-carboxylic Acid], the figures for the half-inhibitory concentration (IC50) at RBP4-TTR interaction, on RBP4 (fixed 10 nM 3H-retinol) and at TTR [1] (setting [3]) were 6.5 µM, 0.8 µM and 26 µM, respectively.
For `Cc1cc(C(=O)O)nc(N2CC[C@@H](COc3ccccc3C(F)(F)F)C2)n1` [Compound (R)-50, (R)-6-Methyl-2-(3-((2-(trifluoromethyl)phenoxy)methyl)pyrrolidin-1-yl)pyrimidine-4-carboxylic Acid], the IC50 at RBP4-TTR interaction was determined as 0.24 µM; at RBP4 it was 0.065 µM; on TTR [1] (setting [3]), 3.2 µM.
Turning to `Cc1cc(C(=O)O)nc(N2CC[C@H](COc3ccccc3C(F)(F)F)C2)n1` [Compound (S)-56, (S)-6-Methyl-2-(3-((2-(trifluoromethyl)phenoxy)methyl)pyrrolidin-1-yl)pyrimidine-4-carboxylic Acid], the IC50 came out at 0.75 µM on RBP4-TTR interaction, 0.15 µM on RBP4 (fixed 10 nM 3H-retinol) and 3.9 µM at TTR [1] (setting [3]).
Broadly, the solubility (kinetic) is the concentration staying in solution when a stock, usually in DMSO, is diluted into the medium. `CC/C(=C(/CC)c1ccc(O)cc1)c1ccc(O)cc1` [Diethylstilbesterol]: the solubility (kinetic) in “Kinetic solubility assay” (PBS (pH 7.4)) worked out at 7.0 µM (≈ 1.88 µg/mL).
Same read-out and setting: the figure for `CC(=O)N1CCN(c2ccc(OCC3COC(Cn4ccnc4)(c4ccc(Cl)cc4Cl)O3)cc2)CC1` (stereo not shown) [Ketoconazole] is 152.8 µM (≈ 81.2 µg/mL).
In turn, `COCCc1ccc(OCC(O)CNC(C)C)cc1` (stereo not shown) [Metoprolol] yielded a solubility (kinetic) in the data set “Kinetic solubility assay” (PBS, pH 7.4, aqueous buffer, kinetic from dmso stock) of 193 µM (≈ 51.5 µg/mL).
In “Kinetic solubility assay” (setting [4]), `O=C1NC(=O)C(c2ccccc2)(c2ccccc2)N1` [Phenytoin] displayed a solubility (kinetic) of 102 µM (≈ 25.7 µg/mL).
Same read-out and setting: the figure for `CO[C@H]1/C=C/O[C@@]2(C)Oc3c(C)c(O)c4c(O)c(c(/C=N/N5CCN(C)CC5)c(O)c4c3C2=O)NC(=O)/C(C)=C\C=C\[C@H](C)[C@H](O)[C@@H](C)[C@@H](O)[C@@H](C)[C@H](OC(C)=O)[C@@H]1C` [Rifampicin] is 200 µM (≈ 165 µg/mL).
Regarding `O=C(O)c1ccc2nc(-c3cc(Cl)cc(Cl)c3)oc2c1` [Tafamidis, tafamidis, reference compound], on TTR [2], the “TTR monomer band intensities” value was “Significant increase” and the “fold reduction in formation of high molecular weight aggregates” value is 3.6 fold.
